From ChEMBL document CHEMBL1201862, “PubChem BioAssay data set” (2004) come the findings set out here.

The source made the active and inactive calls.

What all share (type): functional
The target in assay [1] is Genome polyprotein (dengue virus type 2, UniProt P29990). The assay can be described thus: flavivirus cap methylation enzyme inhibition – biochemical, confirmation dose response, primary screen (AID 588689).
Assay [2] deals with Dual specificity protein kinase CLK2 (Homo sapiens, UniProt P49760).
Sequence of Dual specificity protein kinase CLK2 (P49760 whole entry): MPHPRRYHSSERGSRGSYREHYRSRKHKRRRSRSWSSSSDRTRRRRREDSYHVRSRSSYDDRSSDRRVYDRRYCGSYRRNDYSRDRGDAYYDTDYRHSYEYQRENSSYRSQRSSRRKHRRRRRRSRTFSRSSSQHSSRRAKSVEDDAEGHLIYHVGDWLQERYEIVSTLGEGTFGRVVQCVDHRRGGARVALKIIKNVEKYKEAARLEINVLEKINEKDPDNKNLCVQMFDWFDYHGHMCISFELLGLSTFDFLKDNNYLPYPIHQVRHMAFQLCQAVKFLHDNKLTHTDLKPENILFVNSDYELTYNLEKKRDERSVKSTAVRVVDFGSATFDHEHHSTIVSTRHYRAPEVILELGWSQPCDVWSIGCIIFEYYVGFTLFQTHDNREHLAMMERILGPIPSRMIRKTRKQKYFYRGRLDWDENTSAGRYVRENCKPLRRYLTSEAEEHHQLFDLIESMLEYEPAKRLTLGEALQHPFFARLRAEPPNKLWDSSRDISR
Assay [3] has as its target Serine/threonine-protein kinase D2 (Homo sapiens, UniProt Q9BZL6).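 Also: measured against PRKD2 as one member of a kinome-wide kinase profiling panel.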
The target of assay [4] is Serine/threonine-protein kinase D3 (Homo sapiens, UniProt O94806).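 Also: determined within a kinase panel screen, with PRKCN as the panel member.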
The target of assay [5] is Serine/threonine-protein kinase Chk2 (Homo sapiens, UniProt O96017).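 Also: CHEK2 entry within a kinome-wide screening panel.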
Assay [6] has as its target Serine/threonine-protein kinase pim-1 (Homo sapiens, UniProt P11309).
For assay [7], the target named is Serine/threonine-protein kinase PAK 4 (Homo sapiens, UniProt O96013).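 Also: value obtained within a kinome profiling panel in which PAK4 was one of the panel members.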
Assay [8] has as its target Tyrosine-protein kinase Lyn (Homo sapiens, UniProt P07948).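 Also: lyn as one member of a kinase panel.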
Assay [9] addresses Casein kinase I isoform delta (Homo sapiens, UniProt P48730).
The target in assay [10] is Cyclin-dependent kinase 5 (Homo sapiens, UniProt Q00535).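 Also: CDK5 measured as one member of a kinase profiling panel.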
In assay [11] the target is Ephrin type-A receptor 2 (Homo sapiens, UniProt P29317).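 Also: EPHA2 tested as one member of a kinome-wide kinase panel.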
For assay [12], the target named is Insulin-like growth factor 1 receptor (Homo sapiens, UniProt P08069). Nature of the assay: Navigating the Kinome. Panel member name: IGF1R.
Assay [13] concerns the target Misshapen-like kinase 1 (Homo sapiens, UniProt Q8N4C8).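 Also: kinome panel screen with MINK as the panel member.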
Assay [14] has as its target Maternal embryonic leucine zipper kinase (Homo sapiens, UniProt Q14680).
For assay [15], the target named is Rho-associated protein kinase 1 (Homo sapiens, UniProt Q13464).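 Also: measured within a broad kinome-wide panel profiling many kinases.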
Sequence of Rho-associated protein kinase 1 (Q13464 whole entry): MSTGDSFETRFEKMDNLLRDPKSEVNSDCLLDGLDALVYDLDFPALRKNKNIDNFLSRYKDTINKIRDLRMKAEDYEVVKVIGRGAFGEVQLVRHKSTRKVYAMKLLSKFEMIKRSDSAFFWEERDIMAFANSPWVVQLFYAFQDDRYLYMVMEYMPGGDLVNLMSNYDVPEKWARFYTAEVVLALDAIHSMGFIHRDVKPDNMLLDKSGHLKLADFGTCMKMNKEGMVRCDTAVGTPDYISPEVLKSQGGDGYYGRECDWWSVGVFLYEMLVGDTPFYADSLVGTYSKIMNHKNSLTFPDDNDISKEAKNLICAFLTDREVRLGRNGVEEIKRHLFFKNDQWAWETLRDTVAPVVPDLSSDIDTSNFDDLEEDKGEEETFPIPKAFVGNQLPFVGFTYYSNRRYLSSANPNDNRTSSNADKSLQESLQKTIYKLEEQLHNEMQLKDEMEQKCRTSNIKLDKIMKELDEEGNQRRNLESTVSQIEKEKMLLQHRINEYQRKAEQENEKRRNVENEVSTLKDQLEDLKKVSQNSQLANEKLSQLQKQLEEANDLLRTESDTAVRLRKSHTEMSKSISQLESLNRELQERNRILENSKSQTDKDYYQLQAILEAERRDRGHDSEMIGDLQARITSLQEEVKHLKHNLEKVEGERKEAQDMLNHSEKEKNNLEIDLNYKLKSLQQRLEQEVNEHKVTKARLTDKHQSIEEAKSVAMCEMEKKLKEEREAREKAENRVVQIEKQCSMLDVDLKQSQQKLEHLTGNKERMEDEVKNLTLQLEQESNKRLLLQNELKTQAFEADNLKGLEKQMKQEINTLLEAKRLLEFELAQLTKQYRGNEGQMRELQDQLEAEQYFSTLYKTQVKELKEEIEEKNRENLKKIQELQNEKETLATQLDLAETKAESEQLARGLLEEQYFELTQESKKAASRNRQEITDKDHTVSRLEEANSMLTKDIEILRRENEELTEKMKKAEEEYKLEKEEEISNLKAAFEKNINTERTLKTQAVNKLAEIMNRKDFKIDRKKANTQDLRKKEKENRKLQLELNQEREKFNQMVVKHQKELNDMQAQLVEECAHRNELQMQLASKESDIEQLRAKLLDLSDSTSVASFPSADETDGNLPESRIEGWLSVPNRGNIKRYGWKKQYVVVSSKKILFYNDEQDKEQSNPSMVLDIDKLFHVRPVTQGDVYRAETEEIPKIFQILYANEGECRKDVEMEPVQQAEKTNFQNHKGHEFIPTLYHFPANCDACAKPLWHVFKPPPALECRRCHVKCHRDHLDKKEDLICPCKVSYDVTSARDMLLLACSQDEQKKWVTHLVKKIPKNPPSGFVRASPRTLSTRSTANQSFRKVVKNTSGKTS
The target of assay [16] is Serine/threonine-protein kinase Nek2 (Homo sapiens, UniProt P51955).
Sequence of Serine/threonine-protein kinase Nek2 (P51955 whole entry): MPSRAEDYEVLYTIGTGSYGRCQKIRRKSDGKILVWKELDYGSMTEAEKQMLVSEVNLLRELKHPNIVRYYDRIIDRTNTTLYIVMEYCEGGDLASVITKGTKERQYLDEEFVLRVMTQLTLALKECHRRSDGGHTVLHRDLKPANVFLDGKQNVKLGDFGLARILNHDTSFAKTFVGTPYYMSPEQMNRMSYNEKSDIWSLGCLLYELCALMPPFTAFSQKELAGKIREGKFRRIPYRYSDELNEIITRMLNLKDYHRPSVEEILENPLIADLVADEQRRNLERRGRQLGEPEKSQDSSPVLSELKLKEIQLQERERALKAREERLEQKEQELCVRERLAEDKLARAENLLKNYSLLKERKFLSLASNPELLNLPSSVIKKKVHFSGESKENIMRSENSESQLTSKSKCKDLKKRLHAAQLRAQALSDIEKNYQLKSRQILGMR
The target of assay [17] is Glycogen synthase kinase-3 beta (Homo sapiens, UniProt P49841).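 Also: value comes from a broad kinome profiling panel, with GSK3B as the panel member.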
Assay [18] deals with BDNF/NT-3 growth factors receptor (Homo sapiens, UniProt Q16620).
For assay [19], the target named is Receptor tyrosine-protein kinase erbB-4 (Homo sapiens, UniProt Q15303).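 Also: ERBB4 member of a kinome-wide kinase profiling panel.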
Sequence of Receptor tyrosine-protein kinase erbB-4 (Q15303 whole entry): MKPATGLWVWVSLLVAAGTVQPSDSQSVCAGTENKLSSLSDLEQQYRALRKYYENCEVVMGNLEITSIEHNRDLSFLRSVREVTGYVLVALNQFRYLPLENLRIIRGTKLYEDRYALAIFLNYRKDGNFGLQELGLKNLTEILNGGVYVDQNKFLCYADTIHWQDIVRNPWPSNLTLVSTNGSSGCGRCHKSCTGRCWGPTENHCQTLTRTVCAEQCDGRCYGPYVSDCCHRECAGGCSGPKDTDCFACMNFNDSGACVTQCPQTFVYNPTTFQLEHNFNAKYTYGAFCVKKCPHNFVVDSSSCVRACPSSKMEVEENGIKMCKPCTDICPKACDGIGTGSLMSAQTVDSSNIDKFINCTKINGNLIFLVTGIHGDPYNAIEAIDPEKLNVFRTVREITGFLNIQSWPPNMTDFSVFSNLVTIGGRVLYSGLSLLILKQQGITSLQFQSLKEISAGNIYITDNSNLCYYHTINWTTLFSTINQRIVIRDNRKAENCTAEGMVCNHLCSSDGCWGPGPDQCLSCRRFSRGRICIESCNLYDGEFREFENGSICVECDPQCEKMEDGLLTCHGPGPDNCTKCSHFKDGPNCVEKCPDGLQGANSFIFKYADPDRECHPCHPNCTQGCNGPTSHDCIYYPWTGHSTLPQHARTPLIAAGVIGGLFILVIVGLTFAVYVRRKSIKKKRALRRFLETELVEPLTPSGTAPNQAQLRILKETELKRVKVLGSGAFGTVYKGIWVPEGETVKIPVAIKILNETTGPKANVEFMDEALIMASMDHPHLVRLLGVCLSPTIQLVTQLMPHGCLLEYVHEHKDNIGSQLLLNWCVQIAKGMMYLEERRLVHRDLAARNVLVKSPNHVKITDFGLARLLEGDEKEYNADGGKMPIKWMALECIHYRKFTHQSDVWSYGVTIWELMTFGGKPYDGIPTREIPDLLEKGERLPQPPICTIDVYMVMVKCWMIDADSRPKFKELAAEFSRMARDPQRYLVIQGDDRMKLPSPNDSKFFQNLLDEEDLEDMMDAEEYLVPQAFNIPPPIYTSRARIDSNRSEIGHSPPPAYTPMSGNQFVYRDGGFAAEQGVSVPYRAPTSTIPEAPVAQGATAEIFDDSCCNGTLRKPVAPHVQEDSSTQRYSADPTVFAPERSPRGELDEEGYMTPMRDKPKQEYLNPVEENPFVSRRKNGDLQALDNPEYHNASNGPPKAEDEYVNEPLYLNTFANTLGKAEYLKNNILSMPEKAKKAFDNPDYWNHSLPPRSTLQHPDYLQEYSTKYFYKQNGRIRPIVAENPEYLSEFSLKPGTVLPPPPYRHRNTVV
In assay [20] the target is Dual specificity tyrosine-phosphorylation-regulated kinase 1A (Homo sapiens, UniProt Q13627).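 Also: measured against DYRK1A as one member of a broad kinome profiling panel.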

Sequence of Serine/threonine-protein kinase D2 (Q9BZL6 whole entry): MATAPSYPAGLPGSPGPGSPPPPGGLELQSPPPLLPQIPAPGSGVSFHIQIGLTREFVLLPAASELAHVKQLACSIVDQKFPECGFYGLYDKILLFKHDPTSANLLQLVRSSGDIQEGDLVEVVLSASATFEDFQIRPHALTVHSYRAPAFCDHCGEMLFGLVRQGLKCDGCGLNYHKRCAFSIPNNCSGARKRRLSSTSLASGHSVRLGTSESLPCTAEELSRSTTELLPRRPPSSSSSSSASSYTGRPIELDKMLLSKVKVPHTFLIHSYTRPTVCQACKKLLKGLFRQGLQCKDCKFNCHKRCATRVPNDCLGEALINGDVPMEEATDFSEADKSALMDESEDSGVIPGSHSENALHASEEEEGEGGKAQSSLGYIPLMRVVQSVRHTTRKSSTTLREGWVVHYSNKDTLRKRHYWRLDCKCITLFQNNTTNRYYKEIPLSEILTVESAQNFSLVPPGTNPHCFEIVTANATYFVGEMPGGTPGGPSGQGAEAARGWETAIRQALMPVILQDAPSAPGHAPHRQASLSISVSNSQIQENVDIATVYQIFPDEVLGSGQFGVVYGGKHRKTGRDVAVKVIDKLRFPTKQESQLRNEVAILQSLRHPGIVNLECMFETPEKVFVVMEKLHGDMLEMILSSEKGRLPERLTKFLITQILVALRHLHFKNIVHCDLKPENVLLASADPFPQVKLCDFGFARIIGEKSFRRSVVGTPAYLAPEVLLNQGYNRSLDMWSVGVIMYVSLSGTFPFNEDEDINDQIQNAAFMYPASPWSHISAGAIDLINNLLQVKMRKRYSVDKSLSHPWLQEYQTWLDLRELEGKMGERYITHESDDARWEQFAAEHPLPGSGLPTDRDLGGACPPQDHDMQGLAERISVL
Sequence of Casein kinase I isoform delta (P48730 whole entry, canonical isoform): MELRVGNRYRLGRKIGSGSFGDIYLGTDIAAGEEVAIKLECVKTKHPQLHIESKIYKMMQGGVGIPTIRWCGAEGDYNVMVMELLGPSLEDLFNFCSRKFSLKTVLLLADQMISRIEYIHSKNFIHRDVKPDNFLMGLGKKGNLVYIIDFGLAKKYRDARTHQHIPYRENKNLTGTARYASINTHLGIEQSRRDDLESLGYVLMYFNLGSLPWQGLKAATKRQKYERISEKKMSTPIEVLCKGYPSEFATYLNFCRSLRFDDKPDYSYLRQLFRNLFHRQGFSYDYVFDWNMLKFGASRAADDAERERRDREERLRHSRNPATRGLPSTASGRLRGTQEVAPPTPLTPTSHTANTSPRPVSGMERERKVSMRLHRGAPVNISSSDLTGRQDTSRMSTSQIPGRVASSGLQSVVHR

For the compound `CCc1ccc(S(=O)(=O)/N=C2\C=C(NS(=O)(=O)c3ccccc3)C(=O)c3ccccc32)cc1`, the IC50 (commonly the point on the concentration scale where inhibition reaches its midpoint) in [1] was 22.9 µM (active).
Turning to `Cn1cncc1C(OCc1c(-c2ccc(OC(F)(F)F)cc2)cc(C#N)c(=O)n1C)c1ccc(C#N)cc1` (stereo not given), the Ki (usually a dissociation constant, usually derived from enzyme kinetics or from competition with a known ligand) in assay [2] is > 7.94 µM (inactive); in assay [3], > 10 µM (inactive); in [4] it was > 10 µM (inactive); in assay [5] it was > 1.58 µM (inactive); in [6], > 10 µM (inactive); in assay [7], > 5.01 µM (inactive). In addition, the Ki was 0.316 µM (active) in assay [8]; > 7.94 µM (inactive) in assay [9]; > 10 µM (inactive) in [10]; > 3.16 µM (inactive) in assay [11]; > 2 µM (inactive) in assay [12]; > 7.94 µM (inactive) in assay [13]. For the same compound, the Ki was > 1.58 µM (inactive) in [14]; > 10 µM (inactive) in [15]; > 10 µM (inactive) in assay [16]; 2.51 µM (active) in assay [17]; > 5.01 µM (inactive) in [18]; > 3.98 µM (inactive) in assay [19]. Also, the Ki in [20] is 0.316 µM (active).
